Test results published in article PMC9814779, “A triple farnesoid X receptor and peroxisome proliferator-activated receptor α/δ activator reverses hepatic fibrosis in diet-induced NASH in mice” (Communications Chemistry, 2020).

System: GAN DIO-NASH mice
Experiment: DIO NASH model in mice (GAN diet)
Details: for animals with fibrosis worsening / animals with improvement in lobular inflammation / animals with reversed fibrosis: animals/group; for inflammatory cells and inflammatory foci in the liver: compared to vehicle; for liver Galectin-3 (Gal3) and liver CD45: markers of inflammation
Method: The DIO NASH model was performed by the contract research organization Gubra (Hørsholm, Denmark) on a fee-for-service basis. All animal experiments were conducted in accordance with Gubra’s bioethical guidelines, which are fully compliant to internationally accepted principles for the care and use of laboratory animals. The animals were checked minimum once daily for signs of abnormal behavior, abnormal locomotor activity, ataxia, or clinical signs of disease (lack of grooming, raised fur, signs of pain upon handling, loss of excessive body weight).
Male C57BL/6JRj mice (purchased from Janvier Labs, France at 5 weeks of age) were used for the study. […] Mice received the Gubra AMLN NASH (GAN; D09100310, Research Diet, US; 40% fat (primarily palm oil), 40% carbohydrate (20% fructose), and 2% cholesterol) diet for 46 weeks before start of the treatment. Prior to treatment, all animals underwent liver biopsy for histological conformation of liver disease (steatosis score ≥2 and fibrosis stage ≥1) using the non-alcoholic fatty liver disease activity scoring (NAS) and fibrosis staging system. Randomization and stratification to treatment was performed according to quantitative collagen staining (PSR). GAN DIO-NASH mice (n = 16 per group) received treatment (PO) with vehicle, OCA (30 mg/kg), or 41 (10 mg/kg, BID) for 12 weeks. Water containing 1% HPMC/Tween 80 (99:1) served as vehicle. Mice were then sacrificed by cardiac puncture under isoflurane anesthesia for histopathological and biochemical analysis.
For pre-biopsies, mice were anesthetized by inhalation anesthesia using isoflurane (2–3%). A small abdominal incision was made in the midline and the left lateral lobe of the liver was exposed. A cone-shaped wedge of liver tissue (approximately 50 mg) was excised from the distal portion of the lobe and fixated in 10% neutral buffered formalin (10%) for histology. The cut surface of the liver was instantly electrocoagulated using bipolar coagulation (ERBE VIO 100 electrosurgical unit). The liver was returned to the abdominal cavity, the abdominal wall was sutured, and the skin was closed with staplers. […] TG, TC, ALT, and AST levels were determined from blood samples collected at week 4 of treatment in heparinized tubes. Plasma was separated and stored at −80 °C until analysis. […] After termination by heart puncture, livers were collected and weighed. Specific liver samples and biopsies were dissected and processed. The liver was divided into left lateral lobe, medial lobe, right lateral lobe, and caudal lobe. The left lateral lobe was used for the pre-biopsy (not applicable at termination). The liver post biopsy (~200 mg, <0.7 × 0.5 cm) was cut 4 mm from the pre-biopsy site and with an edge. The tissue was collected in paraformaldehyde. The medial lobe was sectioned and snap-frozen in liquid nitrogen for later analysis. One piece (25 ± 5 mg) was dissected and used for TG/TC analysis. […] Liver samples were fixed in formalin, paraffin embedded, and sections were stained. For H&E staining, the slides were incubated in Mayer’s Hematoxylin (Dako), washed in tap water, stained in Eosin Y solution (Sigma-Aldrich), […], and cover-slipped. For PSR staining, the slides were incubated in Weigert’s iron hematoxylin (Sigma-Aldrich), washed in tap water, stained in PSR (Sigma-Aldrich), and washed twice in acidified water. Excess water was removed by shaking the slides, and the slides were then dehydrated in three changes of 100% ethanol, cleared in xylene, and cover-slipped. […] Briefly, after antigen retrieval and blocking of endogenous peroxidase activity, slides were incubated with primary antibody. The primary antibody was detected using a polymeric horseradish peroxidase–linker antibody conjugate. Next, the primary antibody was visualized with 3,3′diaminobenzidine as chromogen. Finally, sections were counterstained in hematoxylin and cover-slipped. Samples were scored for NAS following the criteria outlined in[37].

[1] = 41 10 mg/kg b.i.d., OCA 30 mg/kg
[2] = 12 weeks of treatment, 41 10 mg/kg b.i.d., OCA 30 mg/kg
[3] = 12 weeks, 41 10 mg/kg b.i.d., OCA 30 mg/kg

SMILES	plasma biochemical parameters after 4 weeks of treatment [1]	plasma ALT, AST and triglycerides (TG) at termination [2]	plasma total cholesterol (TC) at termination (12 weeks of treatment, OCA 30 mg/kg)	liver weight, liver TG and liver TC content [3]	steatosis, hepatic fat content [3]	animals not completing the study (OCA 30 mg/kg, one animal)	animals with fibrosis worsening [3]	animals with improvement in lobular inflammation [3]	animals with reversed fibrosis [3]	inflammatory cells and inflammatory foci in the liver (12 weeks)	liver Galectin-3 (Gal3) and liver CD45 (12 weeks)	food intake and body weight (12 weeks, 41 10 mg/kg b.i.d., vs. OCA or vehicle)	liver picrosirius red (PSR), pre vs. post treatment (after the treatment period, 41 10 mg/kg b.i.d.)	fibrosis markers PSR, Col1a1 and α-SMA (compared to vehicle-treated animals, 12 weeks)
CC[C@H]1[C@@H](O)[C@@H]2[C@H](CC[C@]3(C)[C@@H]([C@H](C)CCC(=O)O)CC[C@@H]23)[C@@]2(C)CC[C@@H](O)C[C@@H]12 [OCA, 6α-ethylchenodeoxycholic acid, reference compound]	reduced total cholesterol (TC) plasma levels	not different between groups	reduced TC levels	lowered liver weight, liver TG, and liver TC	strongly reduced hepatic fat content and steatosis score	found dead during the second week of the treatment phase	4/15	8/15	2/15	decreased the number of inflammatory cells and inflammatory foci	reduced by both treatments	–	–	–
CC(C)(C)c1ccc(C(=O)Nc2cccc(CCC(=O)O)c2)c(NC(=O)c2ccc(-c3ccco3)cc2)c1 [compound 41, 3-(3-[4-{tert-Butyl}-2-{4-(2-furyl)}benzamido]phenyl)propanoic acid]	not significantly different between the groups	not different between groups	–	did not differ from vehicle-treated mice	no pronounced effect on steatosis	–	1/16	5/16	6/16	decreased the number of inflammatory cells and inflammatory foci	reduced by both treatments	no difference in food intake and body weight	significant reduction of liver picrosirius red (PSR)	decreased
